Legend:
Test in all cases: Test C pre-/postemergence greenhouse test, plant response rating 0-100;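 as to Plant response rating (0 to 100), Blackgrass: 0 is no effect and 100 is complete control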;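 as to Plant response rating (0 to 100), Ragweed: 0 is no effect and 100 is complete control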;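 as to Plant response rating, Blackgrass: 0 is no effect and 100 is complete control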;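 as to Plant response rating, Ragweed: 0 is no effect and 100 is complete control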
Assay type in all cases: in vivo
[1] = tested on: pigweed (Amaranthus retroflexus)
Procedure, shortened: (§1)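 Formulated in solvent with surfactant, test chemicals were sprayed on seeded loam/sand pots and, concurrently, on young plants 2–18 cm tall. Evaluation: visual, versus controls, day 13–15.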

[2] = tested on: galium (catchweed bedstraw, Galium aparine)
Procedure, shortened: as §1

[3] = tested on: ragweed (common ragweed, Ambrosia elatior);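 also: 0 is no effect and 100 is complete control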
Procedure, shortened: as §1

[4] = tested on: blackgrass (Alopecurus myosuroides);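 also: 0 is no effect and 100 is complete control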
Procedure, shortened: as §1

[5] = tested on: yellow nutsedge (Cyperus esculentus)
Procedure, shortened: as §1

[6] = tested on: velvetleaf (Abutilon theophrasti)
Procedure, shortened: as §1

[7] = tested on: johnsongrass (Sorghum halepense)
Procedure, shortened: as §1

[8] = tested on: morningglory (Ipomoea coccinea)
Procedure, shortened: as §1

[9] = tested on: winter wheat (Triticum aestivum)
Procedure, shortened: as §1

[10] = tested on: corn (Zea mays)
Procedure, shortened: as §1

[11] = tested on: large (Lg) crabgrass (Digitaria sanguinalis)
Procedure, shortened: as §1

[12] = tested on: lambsquarters (Chenopodium album)
Procedure, shortened: as §1

[13] = Postemergence, 250 g ai/ha, scale 0 to 100
[14] = Postemergence, 500 g ai/ha, scale 0 to 100

Structure (SMILES): O=Cn1cc(C(=O)c2ccccc2)c(-c2cc(Cl)cc(Cl)c2)n1 [Compound 28]
- Plant response rating (0 to 100), Pigweed ([1]; Postemergence, 62 g ai/ha): 90
- Plant response rating (0 to 100), Pigweed ([1]; Postemergence, 125 g ai/ha): 98
- Plant response rating, Pigweed [1, 13]: 98
- Plant response rating, Pigweed [1, 14]: 100
- Plant response rating, Pigweed ([1]; Preemergence, 62 g ai/ha): 100
- Plant response rating, Pigweed ([1]; Preemergence, 125 g ai/ha): 100
- Plant response rating, Pigweed ([1]; Preemergence, 250 g ai/ha): 100
- Plant response rating, Pigweed ([1]; Preemergence, 500 g ai/ha): 100
- Plant response rating (0 to 100), Galium ([2]; Postemergence, 62 g ai/ha): 5
- Plant response rating (0 to 100), Galium ([2]; Postemergence, 125 g ai/ha): 40
- Plant response rating, Galium [2, 13]: 35
- Plant response rating, Galium [2, 14]: 30
- Plant response rating, Galium ([2]; Preemergence, 62 g ai/ha): 20
- Plant response rating, Galium ([2]; Preemergence, 125 g ai/ha): 80
- Plant response rating, Galium ([2]; Preemergence, 250 g ai/ha): 80
- Plant response rating, Galium ([2]; Preemergence, 500 g ai/ha): 80
- Plant response rating (0 to 100), Ragweed ([3]; Postemergence, 62 g ai/ha): 60
- Plant response rating (0 to 100), Ragweed ([3]; Postemergence, 125 g ai/ha): 45
- Plant response rating, Ragweed [3, 13]: 70
- Plant response rating, Ragweed [3, 14]: 85
- Plant response rating, Ragweed ([3]; Preemergence, 62 g ai/ha): 65
- Plant response rating, Ragweed ([3]; Preemergence, 125 g ai/ha): 75
- Plant response rating, Ragweed ([3]; Preemergence, 250 g ai/ha): 90
- Plant response rating, Ragweed ([3]; Preemergence, 500 g ai/ha): 98
- Plant response rating (0 to 100), Blackgrass ([4]; Postemergence, 62 g ai/ha): 0
- Plant response rating, Blackgrass ([4]; Postemergence, 125 g ai/ha, scale 0 to 100): 0
- Plant response rating, Blackgrass [4, 13]: 0
- Plant response rating, Blackgrass [4, 14]: 0
- Plant response rating, Blackgrass ([4]; Preemergence, 62 g ai/ha): 0
- Plant response rating, Blackgrass ([4]; Preemergence, 125 g ai/ha): 0
- Plant response rating, Blackgrass ([4]; Preemergence, 250 g ai/ha): 5
- Plant response rating, Blackgrass ([4]; Preemergence, 500 g ai/ha): 5
- Plant response rating (0 to 100), Nutsedge, Yellow ([5]; Postemergence, 62 g ai/ha): 0
- Plant response rating (0 to 100), Nutsedge, Yellow ([5]; Postemergence, 125 g ai/ha): 0
- Plant response rating, Nutsedge, Yellow [5, 13]: 5
- Plant response rating, Nutsedge, Yellow [5, 14]: 0
- Plant response rating, Nutsedge, Yellow ([5]; Preemergence, 62 g ai/ha): 0
- Plant response rating, Nutsedge, Yellow ([5]; Preemergence, 125 g ai/ha): 0
- Plant response rating, Nutsedge, Yellow ([5]; Preemergence, 250 g ai/ha): 0
- Plant response rating, Nutsedge, Yellow ([5]; Preemergence, 500 g ai/ha): 0
- Plant response rating (0 to 100), Velvetleaf ([6]; Postemergence, 62 g ai/ha): 80
- Plant response rating (0 to 100), Velvetleaf ([6]; Postemergence, 125 g ai/ha): 80
- Plant response rating, Velvetleaf [6, 13]: 85
- Plant response rating, Velvetleaf [6, 14]: 85
- Plant response rating, Velvetleaf ([6]; Preemergence, 62 g ai/ha): 65
- Plant response rating, Velvetleaf ([6]; Preemergence, 125 g ai/ha): 90
- Plant response rating, Velvetleaf ([6]; Preemergence, 250 g ai/ha): 98
- Plant response rating, Velvetleaf ([6]; Preemergence, 500 g ai/ha): 98
- Plant response rating (0 to 100), Johnsongrass ([7]; Postemergence, 62 g ai/ha): 0
- Plant response rating (0 to 100), Johnsongrass ([7]; Postemergence, 125 g ai/ha): 0
- Plant response rating, Johnsongrass [7, 13]: 0
- Plant response rating, Johnsongrass [7, 14]: 0
- Plant response rating, Johnsongrass ([7]; Preemergence, 62 g ai/ha): 0
- Plant response rating, Johnsongrass ([7]; Preemergence, 125 g ai/ha): 0
- Plant response rating, Johnsongrass ([7]; Preemergence, 250 g ai/ha): 0
- Plant response rating, Johnsongrass ([7]; Preemergence, 500 g ai/ha): 0
- Plant response rating (0 to 100), Morningglory ([8]; Postemergence, 62 g ai/ha): 0
- Plant response rating (0 to 100), Morningglory ([8]; Postemergence, 125 g ai/ha): 0
- Plant response rating, Morningglory [8, 13]: 0
- Plant response rating, Morningglory [8, 14]: 0
- Plant response rating, Morningglory ([8]; Preemergence, 62 g ai/ha): 0
- Plant response rating, Morningglory ([8]; Preemergence, 125 g ai/ha): 0
- Plant response rating, Morningglory ([8]; Preemergence, 250 g ai/ha): 0
- Plant response rating, Morningglory ([8]; Preemergence, 500 g ai/ha): 0
- Plant response rating (0 to 100), Wheat ([9]; Postemergence, 62 g ai/ha): 0
- Plant response rating (0 to 100), Wheat ([9]; Postemergence, 125 g ai/ha): 0
- Plant response rating, Wheat [9, 13]: 0
- Plant response rating, Wheat [9, 14]: 0
- Plant response rating, Wheat ([9]; Preemergence, 62 g ai/ha): 0
- Plant response rating, Wheat ([9]; Preemergence, 125 g ai/ha): 0
- Plant response rating, Wheat ([9]; Preemergence, 250 g ai/ha): 0
- Plant response rating, Wheat ([9]; Preemergence, 500 g ai/ha): 0
- Plant response rating (0 to 100), Corn ([10]; Postemergence, 62 g ai/ha): 0
- Plant response rating (0 to 100), Corn ([10]; Postemergence, 125 g ai/ha): 0
- Plant response rating, Corn [10, 13]: 0
- Plant response rating, Corn [10, 14]: 0
- Plant response rating, Corn ([10]; Preemergence, 62 g ai/ha): 0
- Plant response rating, Corn ([10]; Preemergence, 125 g ai/ha): 0
- Plant response rating, Corn ([10]; Preemergence, 250 g ai/ha): 0
- Plant response rating, Corn ([10]; Preemergence, 500 g ai/ha): 0
- Plant response rating (0 to 100), Crabgrass, Large ([11]; Postemergence, 62 g ai/ha): 0
- Plant response rating (0 to 100), Crabgrass, Large ([11]; Postemergence, 125 g ai/ha): 0
- Plant response rating, Crabgrass, Large [11, 13]: 0
- Plant response rating, Crabgrass, Large [11, 14]: 0
- Plant response rating, Crabgrass, Large ([11]; Preemergence, 62 g ai/ha): 0
- Plant response rating, Crabgrass, Large ([11]; Preemergence, 125 g ai/ha): 0
- Plant response rating, Crabgrass, Large ([11]; Preemergence, 250 g ai/ha): 15
- Plant response rating, Crabgrass, Large ([11]; Preemergence, 500 g ai/ha): 15
- Plant response rating (0 to 100), Lambsquarters ([12]; Postemergence, 62 g ai/ha): 90
- Plant response rating (0 to 100), Lambsquarters ([12]; Postemergence, 125 g ai/ha): 90
- Plant response rating, Lambsquarters [12, 13]: 98
- Plant response rating, Lambsquarters [12, 14]: 98
- Plant response rating, Lambsquarters ([12]; Preemergence, 62 g ai/ha): 100
- Plant response rating, Lambsquarters ([12]; Preemergence, 125 g ai/ha): 100
- Plant response rating, Lambsquarters ([12]; Preemergence, 250 g ai/ha): 100
- Plant response rating, Lambsquarters ([12]; Preemergence, 500 g ai/ha): 100

Source: patent publication US10167262B2, “Herbicidal substituted 3-arylpyrazoles” (FMC CORPORATION, priority 2014, dated 2019)
